Results from US5220050A, “Peptide mimetic compounds useful as platelet aggregation inhibitors” (G. D. Searle & Co., priority 1991, dated 1993).
Where a name gives a salt, the structure may show the parent alone.

System: Platelet Aggregation in Dog PRP
Test: In-Vitro Platelet Aggregation in PRP (ADP induced)
Assay type: cell-based
Conditions: Canis lupus familiaris, Platelet, in-vitro
Experimental: Healthy male or female dogs were fasted for 8 hours prior to drawing blood; then 30 ml whole blood was collected using a butterfly needle and 30 cc plastic syringe with 3 ml of 0.129 M buffered sodium citrate (3.8%). The syringe was rotated carefully as blood was drawn to mix the citrate. Platelet-rich plasma (PRP) was prepared by centrifugation at 975×g for 3.17 minutes at room temperature, allowing the centrifuge to coast to a stop without braking. The PRP was removed from the blood with a plastic pipette and placed in a plastic capped, 50 ml Corning conical sterile centrifuge tube which was held at room temperature. Platelet poor plasma (PPP) was prepared by centrifuging the remaining blood at 2000×g for 15 minutes at room temperature allowing the centrifuge to coast to a stop without braking. The PRP was adjusted with PPP to a count of 2-3×10^8 platelets per ml. 400 μl of the PRP preparation and 50 μl of the compound to be tested or saline were preincubated for 1 minute at 37° C. in a BioData aggregometer (BioData, Horsham, Pa.). 50 μl of adenosine 5'diphosphate (ADP) (50 μm final concentration) was added to the cuvettes and the aggregation was monitored for 1 minute. All compounds are tested in duplicate. Results are calculated as follows:
Percent of control=[(maximal OD minus initial OD of compound) divided by (maximal OD minus initial OD of control saline)]×100. The % inhibition=100-(percent of control).

Structure (SMILES) | IC50 [nM]
N=C(N)c1ccc(CCCCC(=O)NC(CC(=O)O)c2ccccc2O)cc1 (racemic) [(±)-β-[[5-[4-(aminoiminomethyl)phenyl]-1-oxopentyl]amino-2-hydroxybenzenepropanoic acid] | 2000
COc1ccc(C(CC(=O)O)NC(=O)CCCCc2ccc(C(=N)N)cc2)c(O)c1 (racemic) [(±)-β-[[5-[4-(aminoiminomethyl)phenyl]-1-oxopentyl]amino]-2-hydroxy-4-methoxybenzenepropanoic acid] | 690
N=C(N)c1ccc(CCCCC(=O)NC(CC(=O)O)c2cccs2)cc1 (racemic) [(±)-β-[[5-[4-(aminoiminomethyl)phenyl]-1-oxopentyl]amino]-2-thiophenepropanoic acid] | 1700
C[n+]1cccc(C(CC(=O)O)NC(=O)CCCCc2ccc(C(=N)N)cc2)c1 (stereo not drawn) [3-[1-[[5-[4-(aminoiminomethyl)phenyl]-1-oxopentyl]amino]-2-carboxyethyl]-1-methylpyridinium chloride] | 5800
C=CC(CC(=O)O)NC(=O)CCCCc1ccc(C(=N)N)cc1 (stereo not drawn) [3-[[5-[4-(aminoiminomethyl)phenyl]-1-oxopentyl]amino]-4-pentenoic acid] | 9200
CC(CCC(=O)NC(C)CC(=O)O)Cc1ccc(C(=N)N)cc1 (stereo not drawn) [3-[[5-[4-(aminoiminomethyl)phenyl]-4-methyl-1-oxopentyl]amino]butanoic acid] | 1250
C[C@H](CC(=O)O)NC(=O)CCCCc1ccc(C(=N)N)cc1 [3R-[[5-[4-(aminoiminomethyl)phenyl]-1-oxopentyl]amino]butanoic acid] | 1300
N=C(N)c1ccc(CCCCC(=O)NC(CC(=O)O)c2ccc(C(=N)N)cc2)cc1 (stereo not drawn) [4-(aminoiminomethyl)-β-[[5-[4-(aminoiminomethyl)phenyl]-1-oxopentyl]amino]benzenepropanoic acid] | 1800
N=C(N)c1ccc(CCCCC(=O)NCCC(=O)O)cc1 [N-[5-[4 (aminoiminomethyl)phenyl]-1-oxopentyl]-β-alanine] | 6000
N=C(N)c1ccc(CCCCC(=O)NCC(O)C(=O)O)cc1 (stereo not drawn) [N-[5-[4-(Aminoiminomethyl)phenyl]-1-oxopentyl]-2-hydroxy-β-alanine] | 10000
N=C(N)c1ccc(CCCCC(=O)NCCC(=O)OCc2ccccc2)cc1 [N-[5-[4-(Aminoiminomethyl)phenyl]-1-oxopentyl]-β-alanine, phenylmethyl ester] | 5000
N=C(N)c1ccc(CCCCC(=O)NCC(F)C(=O)O)cc1 (stereo not drawn) [N-[5-[4-(Aminoiminomethyl]phenyl]-1-oxopentyl]-2-fluoro-β-alanine] | 30000
N=C(N)c1ccc(CCCCC(=O)NC(CC(=O)O)Cc2ccccc2)cc1 (stereo not drawn) [β-[5-[4-(Aminoiminomethyl)phenyl]-1-oxopentyl]amino]benzenebutanoic acid] | 3000
N=C(N)c1ccc(CCCCC(=O)NC(CC(=O)O)c2ccc(-c3ccccc3)cc2)cc1 (stereo not drawn) [β-[[5-[4-(Aminoiminomethyl)phenyl)-1-oxopentyl]amino][1,1'-biphenyl]-4-propanoic acid, acetate salt] | 2300
N=C(N)c1ccc(C#CCCC(=O)NC(CC(=O)O)c2ccccc2)cc1 (stereo not drawn) [β-[[5-[4-(aminoiminomethyl)phenyl]-1-oxo-4-pentynyl]amino]benzenepropanoic acid] | 1800
N=C(N)c1ccc(CCCCC(=O)NC(CC(=O)O)c2ccc3c(c2)OCO3)cc1 (stereo not drawn) [β-[[5-[4-(aminoiminomethyl)phenyl]-1-oxopentyl]amino]-1,3-benzodioxole-5-propanoic acid] | 280
COc1ccc(C(CC(=O)O)NC(=O)CCCCc2ccc(C(=N)N)cc2)c(OC)c1 (stereo not drawn) [β-[[5-[4-(aminoiminomethyl)phenyl]-1-oxopentyl]amino]-2,4-dimethoxybenzenepropanoic acid] | 2500
COc1ccc(OC)c(C(CC(=O)O)NC(=O)CCCCc2ccc(C(=N)N)cc2)c1 (stereo not drawn) [β-[[5-[4-(aminoiminomethyl)phenyl]-1-oxopentyl]amino]-2,5-dimethoxybenzenepropanoic acid] | 9000
